According to patent US20160067331A1 (priority 2013, published 2016):

Legend:
[1] = system: T cell receptor (TCR) signaling; type: cell-based, human
Lck = Lck (Homo sapiens, UniProt P06239); type: biochemical
Sequence of Lck (P06239 whole entry): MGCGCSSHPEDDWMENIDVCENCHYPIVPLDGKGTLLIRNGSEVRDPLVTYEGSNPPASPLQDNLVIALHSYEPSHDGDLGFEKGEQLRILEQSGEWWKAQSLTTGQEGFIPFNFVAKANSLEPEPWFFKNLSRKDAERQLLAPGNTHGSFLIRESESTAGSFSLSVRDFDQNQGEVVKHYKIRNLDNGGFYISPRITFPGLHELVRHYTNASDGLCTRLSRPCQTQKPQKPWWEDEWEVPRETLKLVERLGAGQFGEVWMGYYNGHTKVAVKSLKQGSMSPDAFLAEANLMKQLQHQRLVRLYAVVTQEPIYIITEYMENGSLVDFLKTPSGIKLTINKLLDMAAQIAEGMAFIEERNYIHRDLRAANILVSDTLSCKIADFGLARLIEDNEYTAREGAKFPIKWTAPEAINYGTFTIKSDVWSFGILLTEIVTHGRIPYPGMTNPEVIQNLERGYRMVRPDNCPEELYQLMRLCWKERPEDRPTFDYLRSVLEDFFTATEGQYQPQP

## GGGGGRKKRRQRRRVYGSVSVTCVWGS [TAT-Y87]
[1]
  IL-2 production by PBMCs following TCR stimulation: inhibited
  surface expression of T cell activation marker CD25: significantly reduced
  surface expression of T cell activation marker CD69: significantly reduced
Lck
  Lck-mediated phosphorylation of synthetic peptide: phosphorylated by Lck in a dose-dependent manner

## GGAGLTGGRYEPLVRRC [TAT-276-292]
Lck
  Lck-mediated phosphorylation of synthetic peptide: served as an in vitro Lck substrate
